Source: US4459290A, “C-23-Modified derivatives of OMT, pharmaceutical compositions and method of use” (priority 1982, dated 1984)

What was measured:
Format in all cases: cell-based
Escherichia coli EC14 = assay: MIC, standard agar-dilution assay (Table V); conditions: Escherichia coli; E. coli EC14; agar dilution; read-out: MIC
Description: (§1) Especially noteworthy is the improved activity against gram-negative bacteria for several derivatives when compared to the activity of OMT. […] The MIC's in Tables V and VI were determined by standard agar-dilution assays. The MIC's in Table VII were obtained using a conventional broth-dilution microtiter test.

Escherichia coli N10 = assay: MIC, standard agar-dilution assay (Table V); conditions: Escherichia coli; E. coli N10; agar dilution; read-out: MIC
Description: as §1

[1] = tested on: Klebsiella pneumoniae KAE; assay: MIC, standard agar-dilution assay (Table V); conditions: Klebsiella pneumoniae; K. pneumoniae KAE; agar dilution; read-out: MIC
Description: as §1

[2] = tested on: Klebsiella pneumoniae X26; assay: MIC, standard agar-dilution assay (Table V); conditions: Klebsiella pneumoniae, X26
Description: as §1

Shigella sonnei N9 = assay: MIC, standard agar-dilution assay (Table V)
Description: as §1

[3] = tested on: Staphylococcus aureus S13E; assay: MIC, standard agar-dilution assay (Table V); conditions: Staphylococcus aureus, S13E
Description: as §1

[4] = tested on: Staphylococcus aureus V41; assay: MIC, standard agar-dilution assay (Table V); conditions: Staphylococcus aureus; S. aureus V41, penicillin-resistant strain; agar dilution; read-out: MIC
Description: as §1

[5] = tested on: Staphylococcus aureus X1.1; assay: MIC, standard agar-dilution assay (Table V); conditions: Staphylococcus aureus, X1.1
Description: as §1

[6] = tested on: Staphylococcus aureus X400; assay: MIC, standard agar-dilution assay (Table V); conditions: Staphylococcus aureus; S. aureus X400, methicillin-resistant strain; agar dilution; read-out: MIC
Description: as §1

[7] = tested on: Staphylococcus epidermidis EPI1; assay: MIC, standard agar-dilution assay (Table V); conditions: Staphylococcus epidermidis; S. epidermidis EPI1; agar dilution; read-out: MIC
Description: as §1

[8] = tested on: Staphylococcus epidermidis EPI2; assay: MIC, standard agar-dilution assay (Table V); conditions: Staphylococcus epidermidis; S. epidermidis EPI2; agar dilution; read-out: MIC
Description: as §1

Streptococcus Group 9960 = assay: MIC, standard agar-dilution assay (Table V); conditions: GROUP9960
Description: as §1

[9] = tested on: Streptococcus Group D X66; assay: MIC, standard agar-dilution assay (Table V)
Description: as §1

Escherichia coli TEM = assay: MIC, standard agar-dilution assay (Table V); conditions: Escherichia coli; E. coli TEM; agar dilution; read-out: MIC
Description: (§2) The MIC's in Tables V and VI were determined by standard agar-dilution assays. The MIC's in Table VII were obtained using a conventional broth-dilution microtiter test.

[10] = tested on: Streptococcus pyogenes C203; assay: MIC, standard agar-dilution assay (Table V); conditions: Streptococcus pyogenes; S. pyogenes C203; agar dilution; read-out: MIC
Description: as §2

[11] = tested on: Streptococcus pneumoniae Park I; assay: microbe, parasite or virus in culture; conditions: Streptococcus pneumoniae; S. pneumoniae Park I; agar dilution; read-out: MIC
Description: as §1

Mycoplasma gallisepticum = assay: MIC, broth-dilution microtiter test (Table VII); conditions: Mycoplasmoides gallisepticum; M. gallisepticum; broth-dilution microtiter; read-out: MIC
Description: as §1

Mycoplasma hyorhinis = assay: MIC, broth-dilution microtiter test (Table VII)
Description: as §1

Mycoplasma synoviae = assay: MIC, broth-dilution microtiter test (Table VII); conditions: Mycoplasmopsis synoviae
Description: as §1

[12] = tested on: Pasteurella hemolytica 22C; assay: MIC, broth-dilution microtiter test (Table VII); conditions: Pasteurella, P. hemolytica 22C, read-out: MIC
Description: as §1

[13] = tested on: Pasteurella hemolytica 23C; assay: MIC, broth-dilution microtiter test (Table VII); conditions: Pasteurella, P. hemolytica 23C, read-out: MIC
Description: as §1

[14] = tested on: Pasteurella hemolytica 41D; assay: MIC, broth-dilution microtiter test (Table VII); conditions: Pasteurella, P. hemolytica 41D, read-out: MIC
Description: as §1

[15] = tested on: Pasteurella multocida 17E; assay: MIC, broth-dilution microtiter test (Table VII); conditions: Pasteurella multocida, 17E
Description: as §1

[16] = tested on: Pasteurella multocida 22A; assay: MIC, broth-dilution microtiter test (Table VII); conditions: Pasteurella multocida, 22A
Description: as §1

[17] = tested on: Pasteurella multocida 40G; assay: MIC, broth-dilution microtiter test (Table VII); conditions: Pasteurella multocida, 40G
Description: as §1

[18] = tested on: Pasteurella multocida 60A; assay: MIC, broth-dilution microtiter test (Table VII); conditions: Pasteurella multocida, 60A
Description: as §1

[19] = tested on: Pasteurella multocida 68C; assay: MIC, broth-dilution microtiter test (Table VII); conditions: Pasteurella multocida, 68C
Description: as §1

Staphylococcus aureus = assay: MIC, broth-dilution microtiter test (Table VII); conditions: Staphylococcus aureus
Description: as §1

Streptococcus sp. 80 = assay: MIC, broth-dilution microtiter test (Table VII); conditions: Streptococcus sp. 80; broth-dilution microtiter; read-out: MIC
Description: as §1

these strains = assay: Activity against the strains of Table VI, agar-dilution; conditions: at the levels tested
Description: as §1

`CCC1OC(=O)CC(O)C(C)C(OC2OC(C)C(O)C(N(C)C)C2OC(C)=O)C(CC=O)CC(C)C(=O)C=CC(C)=CC1C[n+]1ccccc1` (stereo not drawn) [Compound 1, 2'-O-Acetyl-23-deoxy-23-pyridinium-OMT Trifluoro methanesulfonate] showed an MIC (Escherichia coli EC14) of over 128 µg/mL, an MIC (Escherichia coli N10) of over 128 µg/mL and an MIC [1] of over 128 µg/mL. For the same molecule, the MIC [2] was 64 µg/mL, the MIC (Shigella sonnei N9) was over 128 µg/mL and the MIC [3] was 32 µg/mL. The MIC [4] was 64 µg/mL, the MIC [5] was 32 µg/mL and the MIC [6] was 64 µg/mL. For the same molecule, the MIC [7] was 32 µg/mL, the MIC [8] was 64 µg/mL and the MIC (Streptococcus Group 9960) was 64 µg/mL. For the same molecule, the MIC [9] was 64 µg/mL, the MIC (Escherichia coli TEM) was over 128 µg/mL and the MIC [10] was 32 µg/mL. It also gave an MIC [11] of 8 µg/mL, an MIC (Mycoplasma gallisepticum) of 25 µg/mL and an MIC (Mycoplasma hyorhinis) of 50 µg/mL. It also gave an MIC (Mycoplasma synoviae) of 12.5 µg/mL, an MIC [12] of over 50 µg/mL and an MIC [13] of over 50 µg/mL. For the same molecule, the MIC [14] was over 50 µg/mL, the MIC [15] was over 50 µg/mL and the MIC [16] was over 50 µg/mL. For the same molecule, the MIC [17] was over 50 µg/mL, the MIC [18] was over 50 µg/mL and the MIC [19] was over 50 µg/mL. For the same molecule, the MIC (Staphylococcus aureus) was 50 µg/mL, the MIC (Streptococcus sp. 80) was 12.5 µg/mL and the “activity against these strains” value (these strains) was “did not show activity”.
